One data set has as its target T1, Glycerol kinase (Homo sapiens, UniProt P32189).
T1 sequence (P32189 whole entry): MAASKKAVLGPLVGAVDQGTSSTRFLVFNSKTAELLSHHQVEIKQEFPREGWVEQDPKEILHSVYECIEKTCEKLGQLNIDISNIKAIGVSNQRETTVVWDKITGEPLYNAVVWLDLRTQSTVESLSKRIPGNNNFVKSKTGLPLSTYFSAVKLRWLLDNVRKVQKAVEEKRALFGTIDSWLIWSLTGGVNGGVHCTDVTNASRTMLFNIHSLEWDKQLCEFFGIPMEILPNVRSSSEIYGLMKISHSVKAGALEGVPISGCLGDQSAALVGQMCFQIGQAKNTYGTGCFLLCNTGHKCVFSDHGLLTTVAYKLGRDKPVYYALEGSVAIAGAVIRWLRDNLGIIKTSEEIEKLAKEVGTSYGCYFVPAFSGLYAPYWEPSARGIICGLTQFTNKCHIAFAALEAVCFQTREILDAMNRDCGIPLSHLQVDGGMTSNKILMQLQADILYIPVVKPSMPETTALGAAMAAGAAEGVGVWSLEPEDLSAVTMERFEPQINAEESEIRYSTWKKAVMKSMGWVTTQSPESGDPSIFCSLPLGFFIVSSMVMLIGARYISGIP
Description: Tested for its binding affinity against glycerol kinase (ATP competitive inhibition).

A short description of data set [1]: pKa value was evaluated. It counts as physicochemical.

Data on five compounds can be found in ChEMBL document CHEMBL1130575, “ATP analogs with non-transferable groups in the position as inhibitors of glycerol kinase” (Bioorg Med Chem Lett, 1997).

Structures are written as SMILES.

`Nc1ncnc2c1ncn2C1O[C@H](COP(=O)(O)OP(=O)(O)C[As](=O)(O)O)[C@@H](O)[C@H]1O` (some centres undefined): at Glycerol kinase, the inhibition constant Ki was 2900 µM. In data set [1], this compound gave a pKa of 9.

`Nc1ncnc2c1ncn2[C@@H]1O[C@H](COP(=O)(O)OP(=O)(O)NP(=O)(O)O)[C@@H](O)[C@H]1O` registered a Ki on Glycerol kinase of 900 µM.

In the case of `Nc1ncnc2c1ncn2[C@@H]1O[C@H](COP(=O)(O)OP(=O)(O)OP(=O)(O)O)[C@@H](O)[C@H]1O` [ADENOSINE TRIPHOSPHATE], affinity at Glycerol kinase was put at a Ki of 200 µM. This compound came in with a pKa in data set [1] of 7.1.

The compound `Nc1ncnc2c1ncn2[C@@H]1O[C@H](COP(=O)(O)OP(=O)(O)CP(=O)(O)O)[C@@H](O)[C@H]1O` [PHOSPHOMETHYLPHOSPHONIC ACID ADENYLATE ESTER] had an inhibition constant Ki on Glycerol kinase of 300 µM. Also, the pKa in data set [1] turned out to be 8.4.

In turn, `Nc1ncnc2c1ncn2[C@@H]1O[C@H](COP(=O)(O)OP(=O)(O)C(F)(F)P(=O)(O)O)[C@@H](O)[C@H]1O` had a Ki at Glycerol kinase of 80 µM. The compound also came in with a pKa in data set [1] of 6.7.
